In patent US10730858B2, “Lactam, cyclic urea and carbamate, and triazolone derivatives as potent and selective rock inhibitors” (BRISTOL-MYERS SQUIBB COMPANY, priority 2016, dated 2020) one finds IC50 data, which are given here for 30 molecules.

For orientation: IC50 means the midpoint of a concentration-inhibition curve.

ROCK2, sequence (O75116 whole entry, species assumed): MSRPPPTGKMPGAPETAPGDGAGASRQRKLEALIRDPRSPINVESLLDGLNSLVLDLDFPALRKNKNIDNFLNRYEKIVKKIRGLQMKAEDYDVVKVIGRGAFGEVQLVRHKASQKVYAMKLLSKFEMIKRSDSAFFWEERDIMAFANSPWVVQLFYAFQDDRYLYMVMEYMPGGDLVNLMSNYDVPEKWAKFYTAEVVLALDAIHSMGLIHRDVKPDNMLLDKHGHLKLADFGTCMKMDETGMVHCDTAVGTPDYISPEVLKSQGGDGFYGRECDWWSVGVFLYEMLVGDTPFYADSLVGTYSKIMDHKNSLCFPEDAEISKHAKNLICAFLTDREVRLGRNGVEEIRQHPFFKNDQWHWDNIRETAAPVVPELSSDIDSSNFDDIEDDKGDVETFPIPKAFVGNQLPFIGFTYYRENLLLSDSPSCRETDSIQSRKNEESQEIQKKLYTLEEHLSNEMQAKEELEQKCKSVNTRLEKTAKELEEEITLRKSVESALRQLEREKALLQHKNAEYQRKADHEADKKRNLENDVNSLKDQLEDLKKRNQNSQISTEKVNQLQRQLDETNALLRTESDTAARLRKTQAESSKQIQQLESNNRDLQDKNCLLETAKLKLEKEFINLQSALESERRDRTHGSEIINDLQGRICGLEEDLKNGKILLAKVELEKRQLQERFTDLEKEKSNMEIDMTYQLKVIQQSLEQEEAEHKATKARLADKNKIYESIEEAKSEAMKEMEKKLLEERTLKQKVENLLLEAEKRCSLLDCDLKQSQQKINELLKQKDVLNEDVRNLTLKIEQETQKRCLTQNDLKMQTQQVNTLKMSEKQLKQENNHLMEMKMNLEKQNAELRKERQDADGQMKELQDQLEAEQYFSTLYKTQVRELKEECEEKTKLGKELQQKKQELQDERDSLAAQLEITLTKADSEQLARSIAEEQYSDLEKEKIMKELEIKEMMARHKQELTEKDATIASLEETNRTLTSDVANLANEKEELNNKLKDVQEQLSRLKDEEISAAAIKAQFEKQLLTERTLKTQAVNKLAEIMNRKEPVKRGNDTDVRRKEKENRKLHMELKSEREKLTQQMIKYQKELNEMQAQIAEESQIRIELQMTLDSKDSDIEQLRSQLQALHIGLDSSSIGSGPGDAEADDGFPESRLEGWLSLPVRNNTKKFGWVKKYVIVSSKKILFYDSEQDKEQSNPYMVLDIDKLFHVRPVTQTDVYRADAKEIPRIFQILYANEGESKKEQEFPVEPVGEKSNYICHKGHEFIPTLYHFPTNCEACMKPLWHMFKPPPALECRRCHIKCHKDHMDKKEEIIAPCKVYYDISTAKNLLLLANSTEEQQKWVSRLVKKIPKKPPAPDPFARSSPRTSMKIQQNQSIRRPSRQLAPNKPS

The target in the assay is ROCK2 (Homo sapiens, UniProt O75116). Description: ROCK2 assay (Caliper LABCHIP peptide phosphorylation, kinase inhibition). It counts as biochemical. Particulars: 5 μM ATP, 1.5 μM peptide substrate. How it is done:
The effectiveness of compounds of the present invention as ROCK inhibitors can be determined in a 30 μL assay containing 20 mM HEPES, pH 7.5, 20 mM MgCl2, 0.015% Brij-35, 4 mM DTT, 5 μM ATP and 1.5 μM peptide substrate (FITC-AHA-AKRRRLSSLRA-OH) (SEQ ID NO. 1). Compounds were dissolved in DMSO so that the final concentration of DMSO was <2%, and the reaction was initiated with Rho kinase variants. After incubation, the reaction was terminated by the addition of EDTA and the phosphorylated and non-phosphorylated peptides separated using a LABCHIP® 3000 Reader (Caliper Life Sciences). […] Compounds were tested in dose-response format, and the inhibition of kinase activity was calculated at each concentration of compound. The inhibition data were fit using a curve-fitting program to determine the IC50; i.e., the concentration of compound required to inhibit 50% of kinase activity.
Representative Examples were tested in the ROCK2 assay described above and found having ROCK2 inhibitory activity. The ranges of the ROCK2 IC50 values are as follows: ROCK2 IC50: ++++ (<10 nM) +++ (10-100 nM) ++ (100-500 nM) + (500-2000 nM)
Turning to `O=C1COc2cc(NC3CCN(c4ccc(-c5n[nH]c(=O)c6ccccc56)cc4)C3=O)ccc2N1` (racemic) [Example 62, 7-({2-oxo-1-[4-(4-oxo-3,4-dihydrophthalazin-1-yl)phenyl]pyrrolidin-3-yl}amino)-3,4-dihydro-2H-1,4-benzoxazin-3-one], the IC50 was < 10 nM.

For `COc1cc(NC2CCN(c3ccc(-c4n[nH]c(=O)c5ccccc45)cc3)C2=O)ccc1F` (stereo not drawn) [Example 42, 4-(4-{3-[(4-fluoro-3-methoxyphenyl)amino]-2-oxopyrrolidin-1-yl}phenyl)-1,2-dihydrophthalazin-1-one], the IC50 lay in the range of 10 to 100 nM.

In the case of `O=C1OC(c2ccccc2)CN1c1ccc(-c2n[nH]c(=O)c3ccccc23)cc1` (stereo not drawn) [Example 15, 4-[4-(2-oxo-5-phenyl-1,3-oxazolidin-3-yl)phenyl]-1,2-dihydrophthalazin-1-one], the IC50 was 10 to 100 nM.

Consider `O=C1CC(c2ccccc2)CN1c1ccc(-c2n[nH]c(=O)c3ccccc23)cc1` (stereo not drawn) [Example 4, 4-[4-(2-oxo-4-phenylpyrrolidin-1-yl)phenyl]-1,2-dihydrophthalazin-1-one], for which the IC50 lay within 100 to 500 nM.

`CS(=O)(=O)c1cccc(NC2CCN(c3ccc(-c4n[nH]c(=O)c5ccccc45)cc3)C2=O)c1` (stereo not drawn) [Example 67, 4-(4-{3-[(3-methanesulfonylphenyl)amino]-2-oxopyrrolidin-1-yl}phenyl)-1,2-dihydrophthalazin-1-one] returned an IC50 of 10 to 100 nM.

`CCOc1cccc(NC2CCN(c3ccc(-c4n[nH]c(=O)c5ccccc45)cc3)C2=O)c1` (stereo not drawn) [Example 43, 4-(4-{3-[(3-ethoxyphenyl)amino]-2-oxopyrrolidin-1-yl}phenyl)-1,2-dihydrophthalazin-1-one] showed an IC50 of 10 to 100 nM.

`O=C1C(Nc2ccccc2)CCN1c1ccc(-c2n[nH]c(=O)c3ccccc23)cc1` (stereo not drawn) [Example 27, 4-{4-[2-oxo-3-(phenylamino)pyrrolidin-1-yl]phenyl}-1,2-dihydrophthalazin-1-one] showed an IC50 of 10 to 100 nM.

Regarding `O=C1COc2cc(NC3CCN(c4ccc(-c5n[nH]c(=O)c6ccccc56)cc4)C3=O)ccc2N1` (single isomer, unassigned) [Example 82, 7-({2-oxo-1-[4-(4-oxo-3,4-dihydrophthalazin-1-yl)phenyl]pyrrolidin-3-yl}amino)-3,4-dihydro-2H-1,4-benzoxazin-3-one], the IC50 was < 10 nM.

As for `COc1cccc(Cn2cnn(-c3ccc(-c4n[nH]c(=O)c5ccccc45)cc3)c2=O)c1` [Example 46, 4-(4-{4-[(3-methoxyphenyl)methyl]-5-oxo-4,5-dihydro-1H-1,2,4-triazol-1-yl}phenyl)-1,2-dihydrophthalazin-1-one], the IC50 is 100 to 500 nM.

With `O=C1C(Nc2ccc3c(c2)OCCCO3)CCN1c1ccc(-c2n[nH]c(=O)c3ccccc23)cc1` (single isomer, unassigned) [Example 76, 4-(4-{3-[(3,4-dihydro-2H-1,5-benzodioxepin-7-yl)amino]-2-oxopyrrolidin-1-yl}phenyl)-1,2-dihydrophthalazin-1-one], the IC50 lay in the range of 10 to 100 nM.

Molecule `COc1cc(C)cc(NC2CCN(c3ccc(-c4n[nH]c(=O)c5ccccc45)cc3)C2=O)c1` (stereo not drawn) [Example 38, 4-(4-{3-[(3-methoxy-5-methylphenyl)amino]-2-oxopyrrolidin-1-yl}phenyl)-1,2-dihydrophthalazin-1-one] came in with an IC50 of 10 to 100 nM.

Molecule `O=C(C1CCN(c2ccc(-c3n[nH]c(=O)c4ccccc34)cc2)C1=O)N1Cc2ccccc2C1` (stereo not drawn) [Example 5, 4{-4-[3-(2,3-dihydro-1H-isoindole-2-carbonyl)-2-oxopyrrolidin-1-yl]phenyl}-1,2-dihydrophthalazin-1-one] came in with a 50% inhibitory concentration (IC50) of 500 to 2000 nM.

`O=C1COc2cc(NC3CCN(c4ccc(-c5n[nH]c(=O)c6ccccc56)cc4)C3=O)ccc2N1` (single isomer, unassigned) [Example 83, 7-({2-oxo-1-[4-(4-oxo-3,4-dihydrophthalazin-1-yl)phenyl]pyrrolidin-3-yl}amino)-3,4-dihydro-2H-1,4-benzoxazin-3-one] gave an IC50 of 10 to 100 nM.

Take `C[C@@H]1OC(=O)N(c2ccc(-c3n[nH]c(=O)c4ccccc34)cc2)[C@@H]1c1ccccc1` [Example 23, 4-{4-[(4R,5S)-5-methyl-2-oxo-4-phenyl-1,3-oxazolidin-3-yl]phenyl}-1,2-dihydrophthalazin-1-one]: the IC50 is 500 to 2000 nM.

Regarding `COc1cc(NC2CCN(c3ccc(-c4n[nH]c(=O)c5ccccc45)cc3)C2=O)ccc1N1CCOCC1` (stereo not drawn) [Example 49, 4-[4-(3-{[3-methoxy-4-(morpholin-4-yl)phenyl]amino}-2-oxopyrrolidin-1-yl)phenyl]-1,2-dihydrophthalazin-1-one], the IC50 fell in the range of 10 to 100 nM.

As for `O=c1[nH]nc(-c2ccc(-n3ncn(Cc4ccccc4)c3=O)cc2)c2ccccc12` [Example 41, 4-[4-(4-benzyl-5-oxo-4,5-dihydro-1H-1,2,4-triazol-1-yl)phenyl]-1,2-dihydrophthalazin-1-one], the IC50 was in the range of 100 to 500 nM.

In turn, `CC(c1ccccc1)n1cnn(-c2ccc(-c3n[nH]c(=O)c4ccccc34)cc2)c1=O` (stereo not drawn) [Example 54, 4-{4-[5-oxo-4-(1-phenylethyl)-4,5-dihydro-1H-1,2,4-triazol-1-yl]phenyl}-1,2-dihydrophthalazin-1-one] registered an IC50 of 500 to 2000 nM.

With `O=C1C(Nc2cccc(OC(F)F)c2)CCN1c1ccc(-c2n[nH]c(=O)c3ccccc23)cc1` (racemic) [Example 30, 4-[4-(3-{[3-(difluoromethoxy)phenyl]amino}-2-oxopyrrolidin-1-yl)phenyl]-1,2-dihydrophthalazin-1-one], the IC50 is < 10 nM.

`O=C(NCC1CN(c2ccc(-c3n[nH]c(=O)c4ccccc34)cc2)C(=O)O1)c1ccccc1` (stereo not drawn) [Example 18, N-({2-oxo-3-[4-(4-oxo-3,4-dihydrophthalazin-1-yl)phenyl]-1,3-oxazolidin-5-yl}methyl)benzamide] came in with an IC50 of 100 to 500 nM.

Molecule `O=C1C(Nc2cnn(-c3ccccc3)c2)CCN1c1ccc(-c2n[nH]c(=O)c3ccccc23)cc1` (stereo not drawn) [Example 39, 4-(4-{2-oxo-3-[(1-phenyl-1H-pyrazol-4-yl)amino]pyrrolidin-1-yl}phenyl)-1,2-dihydrophthalazin-1-one] yielded an IC50 of 10 to 100 nM.

Turning to `CC(C)(C)OC(=O)NCC1CN(c2ccc(-c3n[nH]c(=O)c4ccccc34)cc2)C(=O)O1` (stereo not drawn) [Example 16, tert-butyl N-({2-oxo-3-[4-(4-oxo-3,4-dihydrophthalazin-1-yl)phenyl]-1,3-oxazolidin-5-yl}methyl)carbamate], the IC50 lay in the range of 500 to 2000 nM.

`CCCC1CN(c2ccc(-c3n[nH]c(=O)c4ccccc34)cc2)C(=O)O1` (stereo not drawn) [Example 17, 4-[4-(2-oxo-5-propyl-1,3-oxazolidin-3-yl)phenyl]-1,2-dihydrophthalazin-1-one] showed an IC50 of 100 to 500 nM.

`O=C1C(Nc2ccc3c(c2)CCNC3)CCN1c1ccc(-c2n[nH]c(=O)c3ccccc23)cc1` (stereo not drawn) [Example 70, 4-(4-{2-oxo-3-[(1,2,3,4-tetrahydroisoquinolin-6-yl)amino]pyrrolidin-1-yl}phenyl)-1,2-dihydrophthalazin-1-one] registered an IC50 of 100 to 500 nM.

Molecule `COc1cc(F)cc(NC2CCN(c3ccc(-c4n[nH]c(=O)c5ccccc45)cc3)C2=O)c1` (stereo not drawn) [Example 32, 4-(4-{3-[(3-fluoro-5-methoxyphenyl)amino]-2-oxopyrrolidin-1-yl}phenyl)-1,2-dihydrophthalazin-1-one] displayed an IC50 of 10 to 100 nM.

Take `O=C1C(Nc2ccc3c(c2)OCCO3)CCN1c1ccc(-c2n[nH]c(=O)c3ccccc23)cc1` (stereo not drawn) [Example 50, 4-(4-{3-[(2,3-dihydro-1,4-benzodioxin-6-yl)amino]-2-oxopyrrolidin-1-yl}phenyl)-1,2-dihydrophthalazin-1-one]: the IC50 was in the range of 10 to 100 nM.

As for `O=C1C(Nc2cccc(OC(F)F)c2)CCN1c1ccc(-c2c[nH]c(=O)c3ccccc23)cc1` (single isomer, unassigned) [Example 79, 4-[4-(3-{[3-(difluoromethoxy)phenyl]amino}-2-oxopyrrolidin-1-yl)phenyl]-1,2-dihydroisoquinolin-1-one], the IC50 was < 10 nM.

`Cc1[nH]nc(C2CC2)c1NC1CCN(c2ccc(-c3n[nH]c(=O)c4ccccc34)cc2)C1=O` (stereo not drawn) [Example 36, 4-(4-{3-[(3-cyclopropyl-5-methyl-1H-pyrazol-4-yl)amino]-2-oxopyrrolidin-1-yl}phenyl)-1,2-dihydrophthalazin-1-one]: the IC50 lay within 10 to 100 nM.

The molecule `O=c1[nH]nc(-c2ccc(-n3ncn(Cc4cccc(OC(F)F)c4)c3=O)cc2)c2ccccc12` [Example 63, 4-[4-(4-{[3-(difluoromethoxy)phenyl]methyl}-5-oxo-4,5-dihydro-1H-1,2,4-triazol-1-yl)phenyl]-1,2-dihydrophthalazin-1-one] gave an IC50 of 100 to 500 nM.

In turn, `COc1ccc(F)c(NC2CCN(c3ccc(-c4n[nH]c(=O)c5ccccc45)cc3)C2=O)c1` (stereo not drawn) [Example 37, 4-(4-{3-[(2-fluoro-5-methoxyphenyl)amino]-2-oxopyrrolidin-1-yl}phenyl)-1,2-dihydrophthalazin-1-one] displayed an IC50 of 10 to 100 nM.

`O=C1C(Nc2cccc(OC(F)F)c2)CCN1c1ccc(-c2n[nH]c(=O)c3ccccc23)cc1` (single isomer, unassigned) [Example 55, 4-[4-(3-{[3-(difluoromethoxy)phenyl]amino}-2-oxopyrrolidin-1-yl)phenyl]-1,2-dihydrophthalazin-1-one] registered an IC50 of 10 to 100 nM.
